Experimental data: PubChem BioAssay (NCI)
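The compound was tested at five concentrations on cells cultured in 96-well plates, with a 48-hour exposure period. TGI: concentration producing complete growth inhibition.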

Assays:
Assay in all cases: NCI-60 cell line screen, 48 h
[1] = test system: 786-0 renal
[2] = test system: A498 renal
[3] = test system: A549 NSCLC
[4] = test system: ACHN renal
[5] = test system: CAKI-1 renal
[6] = test system: CCRF-CEM leukemia
[7] = test system: COLO 205 colon
[8] = test system: DLD-1 colon
[9] = test system: DMS 114 small cell lung
[10] = test system: DMS 273 small cell lung
[11] = test system: EKVX NSCLC
[12] = test system: HCC-2998 colon
[13] = test system: HCT-116 colon
[14] = test system: HCT-15 colon
[15] = test system: HL-60(TB) leukemia
[16] = test system: HOP-62 NSCLC
[17] = test system: HOP-92 NSCLC
[18] = test system: HT29 colon
[19] = test system: IGROV1 ovarian
[20] = test system: K-562 leukemia
[21] = test system: KM12 colon
[22] = test system: KM20L2 colon
[23] = test system: LOX IMVI melanoma
[24] = test system: LXFL 529 NSCLC
[25] = test system: M14 melanoma
[26] = test system: M19-MEL melanoma
[27] = test system: MALME-3M melanoma
[28] = test system: MOLT-4 leukemia
[29] = test system: NCI-H226 lung
[30] = test system: NCI-H23 lung
[31] = test system: NCI-H460 lung
[32] = test system: NCI-H522 lung
[33] = test system: OVCAR-3 ovarian
[34] = test system: OVCAR-4 ovarian
[35] = test system: OVCAR-5 ovarian
[36] = test system: OVCAR-8 ovarian
[37] = test system: RPMI-8226 leukemia
[38] = test system: RXF 393 renal
[39] = test system: SF-268 CNS
[40] = test system: SF-295 CNS
[41] = test system: SF-539 CNS
[42] = test system: SK-MEL-2 melanoma
[43] = test system: SK-MEL-28 melanoma
[44] = test system: SK-MEL-5 melanoma
[45] = test system: SK-OV-3 ovarian
[46] = test system: SN12C renal
[47] = test system: SNB-19 CNS
[48] = test system: SNB-75 CNS
[49] = test system: SNB-78 CNS
[50] = test system: SW-620 colon
[51] = test system: TK-10 renal
[52] = test system: U251 CNS
[53] = test system: UACC-257 melanoma
[54] = test system: UACC-62 melanoma
[55] = test system: UO-31 renal
[56] = test system: XF 498 CNS
[57] = test system: HOP-18 NSCLC
[58] = test system: SR leukemia

**Q.** `Clc1ccc(C2=Nc3ccccc3SC(c3ccc(Cl)c(Cl)c3)C2)c(Cl)c1` (configuration not stated) was tested. Which TGI [1] did it give?
**A.** 27.6 µM

**Q.** And the TGI [2]?
**A.** 37.4 µM

**Q.** And the TGI [3]?
**A.** 43.6 µM

**Q.** What about the TGI [4] of the same compound?
**A.** 27.6 µM

**Q.** And the TGI [5]?
**A.** 29.6 µM

**Q.** And the TGI [6]?
**A.** 17.1 µM

**Q.** And the TGI [7]?
**A.** 35 µM

**Q.** And the TGI [8]?
**A.** 25.6 µM

**Q.** What about the TGI [9] of the same compound?
**A.** 27.1 µM

**Q.** And the TGI [10]?
**A.** 30 µM

**Q.** What about the TGI [11] of the same compound?
**A.** 33.6 µM

**Q.** What about the TGI [12] of the same compound?
**A.** 27.8 µM

**Q.** And the TGI [13]?
**A.** 23.4 µM

**Q.** What about the TGI [14] of the same compound?
**A.** 27.3 µM

**Q.** And the TGI [15]?
**A.** 24.8 µM

**Q.** What about the TGI [16] of the same compound?
**A.** 18.2 µM

**Q.** What about the TGI [17] of the same compound?
**A.** 30.1 µM

**Q.** What about the TGI [18] of the same compound?
**A.** 28.5 µM

**Q.** What about the TGI [19] of the same compound?
**A.** 30.7 µM

**Q.** What about the TGI [20] of the same compound?
**A.** 22.3 µM

**Q.** What about the TGI [21] of the same compound?
**A.** 24.2 µM

**Q.** And the TGI [22]?
**A.** 39.7 µM

**Q.** And the TGI [23]?
**A.** 21.6 µM

**Q.** And the TGI [24]?
**A.** 29.2 µM

**Q.** And the TGI [25]?
**A.** 30.1 µM

**Q.** What about the TGI [26] of the same compound?
**A.** 32.2 µM

**Q.** And the TGI [27]?
**A.** 29.9 µM

**Q.** And the TGI [28]?
**A.** 18.1 µM

**Q.** What about the TGI [29] of the same compound?
**A.** 37.4 µM

**Q.** And the TGI [30]?
**A.** 34.2 µM

**Q.** What about the TGI [31] of the same compound?
**A.** 34.4 µM

**Q.** What about the TGI [32] of the same compound?
**A.** 28 µM

**Q.** What about the TGI [33] of the same compound?
**A.** 26.1 µM

**Q.** What about the TGI [34] of the same compound?
**A.** 36.6 µM

**Q.** And the TGI [35]?
**A.** 32.1 µM

**Q.** And the TGI [36]?
**A.** 31.1 µM

**Q.** What about the TGI [37] of the same compound?
**A.** 6.01 µM

**Q.** What about the TGI [38] of the same compound?
**A.** 30.5 µM

**Q.** What about the TGI [39] of the same compound?
**A.** 19.9 µM

**Q.** What about the TGI [40] of the same compound?
**A.** 17 µM

**Q.** And the TGI [41]?
**A.** 32.9 µM

**Q.** What about the TGI [42] of the same compound?
**A.** 31.5 µM

**Q.** What about the TGI [43] of the same compound?
**A.** 30.3 µM

**Q.** And the TGI [44]?
**A.** 32.3 µM

**Q.** And the TGI [45]?
**A.** 52.1 µM

**Q.** What about the TGI [46] of the same compound?
**A.** 33.1 µM

**Q.** And the TGI [47]?
**A.** 40 µM

**Q.** What about the TGI [48] of the same compound?
**A.** 34.6 µM

**Q.** What about the TGI [49] of the same compound?
**A.** 35.5 µM

**Q.** What about the TGI [50] of the same compound?
**A.** 18.9 µM

**Q.** What about the TGI [51] of the same compound?
**A.** 36.9 µM

**Q.** What about the TGI [52] of the same compound?
**A.** 32 µM

**Q.** What about the TGI [53] of the same compound?
**A.** 41.1 µM

**Q.** And the TGI [54]?
**A.** 29.4 µM

**Q.** What about the TGI [55] of the same compound?
**A.** 28.1 µM

**Q.** What about the TGI [56] of the same compound?
**A.** 26 µM

**Q.** Which results are given for `C/C(=N\NC(=S)N(C)C)c1ncc[nH]1`?
**A.** TGI [1]: 5.67 µM; TGI [2]: 16.7 µM; TGI [3]: > 100 µM; TGI [4]: 31.4 µM; TGI [6]: 54.9 µM; TGI [8]: > 100 µM; TGI [9]: 39.8 µM; TGI [11]: > 100 µM; TGI [12]: 38.6 µM; TGI [13]: > 100 µM; TGI [14]: > 100 µM; TGI [15]: 5.87 µM; TGI [57]: > 100 µM; TGI [17]: 7.85 µM; TGI [18]: > 100 µM; TGI [19]: 7.71 µM; TGI [20]: 21.2 µM; TGI [21]: > 100 µM; TGI [22]: > 100 µM; TGI [23]: > 100 µM; TGI [24]: > 100 µM; TGI [25]: 5.69 µM; TGI [26]: > 100 µM; TGI [27]: 21.6 µM; TGI [28]: 24 µM; TGI [30]: 5.07 µM; TGI [31]: > 100 µM; TGI [32]: 9.01 µM; TGI [33]: > 100 µM; TGI [35]: 6.19 µM; TGI [36]: > 100 µM; TGI [37]: > 100 µM; TGI [38]: > 100 µM; TGI [39]: > 100 µM; TGI [40]: > 100 µM; TGI [41]: 8.15 µM; TGI [42]: 70.9 µM; TGI [43]: > 100 µM; TGI [45]: 21.8 µM; TGI [46]: 66.5 µM; TGI [47]: > 100 µM; TGI [48]: 85.9 µM; TGI [58]: 7.52 µM; TGI [50]: > 100 µM; TGI [51]: > 100 µM; TGI [52]: 5.22 µM; TGI [53]: 7.52 µM; TGI [54]: 7.67 µM; TGI [55]: 7.31 µM; TGI [56]: > 100 µM

**Q.** Which results are given for `COc1ccc(/C=C2/C(=O)N(C(=O)c3ccc(Cl)cc3)N=C2C)cc1OC`?
**A.** TGI [1]: > 100 µM; TGI [2]: > 100 µM; TGI [3]: > 100 µM; TGI [4]: > 100 µM; TGI [5]: > 100 µM; TGI [6]: > 100 µM; TGI [7]: > 100 µM; TGI [8]: > 100 µM; TGI [9]: > 100 µM; TGI [11]: > 100 µM; TGI [12]: > 100 µM; TGI [13]: > 100 µM; TGI [14]: > 100 µM; TGI [15]: > 100 µM; TGI [16]: > 100 µM; TGI [17]: > 100 µM; TGI [18]: > 100 µM; TGI [19]: > 100 µM; TGI [20]: > 100 µM; TGI [21]: > 100 µM; TGI [22]: > 100 µM; TGI [23]: > 100 µM; TGI [24]: > 100 µM; TGI [25]: > 100 µM; TGI [26]: > 100 µM; TGI [27]: > 100 µM; TGI [30]: > 100 µM; TGI [31]: > 100 µM; TGI [32]: > 100 µM; TGI [33]: > 100 µM; TGI [34]: > 100 µM; TGI [35]: > 100 µM; TGI [36]: > 100 µM; TGI [37]: > 100 µM; TGI [39]: > 100 µM; TGI [40]: > 100 µM; TGI [41]: > 100 µM; TGI [42]: > 100 µM; TGI [43]: > 100 µM; TGI [44]: > 100 µM; TGI [45]: > 100 µM; TGI [46]: > 100 µM; TGI [47]: > 100 µM; TGI [49]: > 100 µM; TGI [50]: > 100 µM; TGI [51]: > 100 µM; TGI [52]: > 100 µM; TGI [53]: > 100 µM; TGI [54]: > 100 µM; TGI [55]: > 100 µM; TGI [56]: > 100 µM
